# Experimental data published in publication PMC6413085, “A Validated HPLC-MS/MS Assay for 14-O-[(4,6-Diaminopyrimidine-2-yl)thioacetyl] Mutilin in Biological Samples and Its Pharmacokinetic, Distribution and Excretion via Urine and Feces in Rats” (Molecules, 2019).
# Where two headings read alike, the source gives them in different places.
# Assays:
# [1] = Pharmacokinetic study of DPTM in rats after i.v., i.m. and p.o. administration (HPLC-MS/MS, non-compartmental); assay type: in vivo; details: Sprague-Dawley, plasma, rat; for Tmax: median (min–max); for bioavailability: read-out: F, absolute bioavailability; for MRT last: read-out: MRT0–t; for CL renal: read-out: CLR(0–t) renal clearance; for Vd: read-out: Vss
# Procedure: After administration of three i.v., i.m. and p.o. dose (10, 25 and 75 mg/kg) of DPTM to rats, the pharmacokinetic profiles of DPTM were quantified by the validated HPLC-MS/MS methods. […] Blood samples (approximately 200 µL) were collected into heparinized tubes through an indwelling catheter inserted in the jugular vein [30] at 0.083, 0.166, 0.5, 1, 2, 4, 6, 8, 12 and 24 h after i.v. dosing and at 0.083, 0.166, 0.5, 1, 2, 4, 6, 8, 12, 24 and 48 h after i.m. or p.o. dosing. The samples were immediately centrifuged (4000 rpm for 10 min) and the supernatants were taken out and stored in a freezer at −70 °C until analysis. The drug was extracted with acetonitrile using the condition previously described. Then, an aliquot of the reconstituted extracts was transferred and filtrated through a 0.22-μm cellulose membrane filter and 10 μL was injected into the HPLC-MS/MS system. A non-compartmental model was used to determine the pharmacokinetic parameters of DPTM. Pharmacokinetic parameters, including maximum plasma concentration (Cmax), time (Tmax), area under the plasma concentration versus time curve from zero to last sampling time (AUC0−t) and elimination half-life (t1/2) were calculated using WinNonlin software (version 2.1, Pharsight, Mountain View, CA, USA). The absolute bioavailability was calculated as follows:F = (AUCextravascular/(AUCi.v.) × (dosei.v./doseextravascular) × 100%. The data are presented as mean ± standard deviation (SD) except for Tmax values using median (minimum value–maximum value).
# [2] = tested on: Gram-positive bacteria, including methicillin-resistant Staphylococcus aureus (MRSA), Staphylococcus aureus, Bacillus subtilis; set-up: method as in PMID 27940400; details: S. aureus, B. subtilis; cited from earlier work
# [3] = Excretion via urine and feces study in rats; assay type: in vivo, Sprague-Dawley rats; details: rat, 75 mg/kg
# Procedure: Excretion via urine and feces was studied in another six rats (half male and half female). After the rats were administered via a single i.v., i.m. and p.o. dose (75 mg/kg) of DPTM, urine and feces samples were collected at 0–4, 4–8, 8–12, 12–24, 24–36, 36–48, 48–72, 72–96, 96–144, 144–192 and 192–240 h intervals in plastic centrifuge tubes and stored at −70 °C until analysis. For quantitative analysis, the fecal samples were dried at 45 °C for 24 h and prepared by the established sample treatment procedure. The urinary samples were prepared by the established sample treatment procedure directly. The obtained samples were injected into the HPLC-MS/MS system for analysis.
compound,measurement,setting,value
"C=CC1(C)CC(OC(=O)CSc2nc(N)cc(N)n2)C2(C)C(C)CCC3(CCC(=O)C32)C(C)C1O (centres unmarked) [DPTM, 14-O-[(4,6-Diaminopyrimidine-2-yl)thioacetyl] mutilin]",Tmax,"[1]; im, 10 mg/kg",0.5 h
same,Tmax,"[1]; im, 25 mg/kg",0.5 h
same,Tmax,"[1]; im, 75 mg/kg",0.5 h
same,bioavailability,"[1]; im, i.m., 10 mg/kg",68.2%
same,MRT last,"[1]; im, i.m., 10 mg/kg",4.4 ± 0.3 h
same,bioavailability,"[1]; im, i.m., 25 mg/kg",48.5%
same,MRT last,"[1]; im, i.m., 25 mg/kg",4.8 ± 0.3 h
same,CL renal,"[1]; im, i.m., 75 mg/kg",46.2 ± 3.8 mL/min
same,bioavailability,"[1]; im, i.m., 75 mg/kg",15.8%
same,MRT last,"[1]; im, i.m., 75 mg/kg",4.2 ± 0.8 h
same,clearance,"[1]; iv, 10 mg/kg",5 mL/min/kg
same,Tmax,"[1]; iv, 10 mg/kg",0.08 h
same,clearance,"[1]; iv, 25 mg/kg",1.67 mL/min/kg
same,Tmax,"[1]; iv, 25 mg/kg",0.08 h
same,clearance,"[1]; iv, 75 mg/kg",0.5 mL/min/kg
same,Tmax,"[1]; iv, 75 mg/kg",0.083 h
same,MRT last,"[1]; iv, i.v., 10 mg/kg",1 ± 0.2 h
same,Vd,"[1]; iv, i.v., 10 mg/kg",0.3 ± 0.1 L/kg
same,MRT last,"[1]; iv, i.v., 25 mg/kg",1.3 ± 0.7 h
same,Vd,"[1]; iv, i.v., 25 mg/kg",0.2 L/kg
same,CL renal,"[1]; iv, i.v., 75 mg/kg",97.6 ± 9.6 mL/min
same,MRT last,"[1]; iv, i.v., 75 mg/kg",1.5 ± 0.4 h
same,Vd,"[1]; iv, i.v., 75 mg/kg",0.03 L/kg
same,Tmax,"[1]; po, 10 mg/kg",2 h
same,Tmax,"[1]; po, 25 mg/kg",2 h
same,Tmax,"[1]; po, 75 mg/kg",2 h
same,bioavailability,"[1]; po, p.o., 10 mg/kg",22.9%
same,MRT last,"[1]; po, p.o., 10 mg/kg",12.8 ± 0.1 h
same,bioavailability,"[1]; po, p.o., 25 mg/kg",24.3%
same,MRT last,"[1]; po, p.o., 25 mg/kg",9.8 ± 0.2 h
same,CL renal,"[1]; po, p.o., 75 mg/kg",12.2 ± 1.3 mL/min
same,bioavailability,"[1]; po, p.o., 75 mg/kg",4.17%
same,MRT last,"[1]; po, p.o., 75 mg/kg",6.9 ± 0.4 h
same,half-life,"[1]; im, 10 mg/kg, i.m., 10 mg/kg, read-out: t1/2 (converted)",3.5 h
same,AUC(0-t),"[1]; im, 10 mg/kg, rat serum, i.m., 10 mg/kg, read-out: AUC0→t",1500 ± 100 ng·h/mL
same,Cmax,"[1]; im, 10 mg/kg, rat serum, i.m., 10 mg/kg, read-out: Cmax",500 ± 100 ng/mL
same,half-life,"[1]; im, 25 mg/kg, i.m., 25 mg/kg, read-out: t1/2 (converted)",3.2 ± 0.2 h
same,AUC(0-t),"[1]; im, 25 mg/kg, rat serum, i.m., 25 mg/kg, read-out: AUC0→t",2600 ± 200 ng·h/mL
same,Cmax,"[1]; im, 25 mg/kg, rat serum, i.m., 25 mg/kg, read-out: Cmax",700 ± 100 ng/mL
same,half-life,"[1]; im, 75 mg/kg, i.m., 75 mg/kg, read-out: t1/2 (converted)",3.3 ± 0.3 h
same,AUC(0-t),"[1]; im, 75 mg/kg, i.m., range over 10, 25 and 75 mg/kg doses, read-out: area under the curve from 0 to 48 h (AUC0→t)",1520 to 5700 ng·h/mL
same,half-life,"[1]; im, 75 mg/kg, i.m., range over 10, 25 and 75 mg/kg doses, read-out: half-life (t1/2)",3.23 to 3.49 h
same,AUC(0-t),"[1]; im, 75 mg/kg, rat serum, i.m., 75 mg/kg, read-out: AUC0→t",5700 ± 200 ng·h/mL
same,Cmax,"[1]; im, 75 mg/kg, rat serum, i.m., 75 mg/kg, read-out: Cmax",1800 ± 100 ng/mL
same,Cmax,"[1]; im, range over 10, 25 and doses, read-out: maximum concentration (Cmax) of drug in serum",470 to 1830 ng/mL
same,half-life,"[1]; iv, 10 mg/kg, i.v., 10 mg/kg, read-out: t1/2 (converted)",1.7 ± 0.1 h
same,AUC(0-t),"[1]; iv, 10 mg/kg, rat serum, i.v., 10 mg/kg, read-out: AUC0→t",2200 ± 200 ng·h/mL
same,Cmax,"[1]; iv, 10 mg/kg, rat serum, i.v., 10 mg/kg, read-out: Cmax",7500 ± 400 ng/mL
same,half-life,"[1]; iv, 25 mg/kg, i.v., 25 mg/kg, read-out: t1/2 (converted)",1.7 ± 0.4 h
same,AUC(0-t),"[1]; iv, 25 mg/kg, rat serum, i.v., 25 mg/kg, read-out: AUC0→t",5400 ± 200 ng·h/mL
same,Cmax,"[1]; iv, 25 mg/kg, rat serum, i.v., 25 mg/kg, read-out: Cmax",16000 ± 500 ng/mL
same,half-life,"[1]; iv, 75 mg/kg, i.v., 75 mg/kg, read-out: t1/2 (converted)",1.9 ± 0.5 h
same,AUC(0-t),"[1]; iv, 75 mg/kg, i.v., range over 10, 25 and 75 mg/kg doses, read-out: area under the curve from 0 to 48 h (AUC0→t)",2230 to 36000 ng·h/mL
same,half-life,"[1]; iv, 75 mg/kg, i.v., range over 10, 25 and 75 mg/kg doses, read-out: half-life (t1/2)",1.7 to 1.86 h
same,AUC(0-t),"[1]; iv, 75 mg/kg, rat serum, i.v., 75 mg/kg, read-out: AUC0→t",36000 ± 300 ng·h/mL
same,Cmax,"[1]; iv, 75 mg/kg, rat serum, i.v., 75 mg/kg, read-out: Cmax",65100 ± 800 ng/mL
same,Cmax,"[1]; iv, range over 10, 25 and doses, read-out: maximum concentration (Cmax) of drug in serum",7540 to 65100 ng/mL
same,half-life,"[1]; po, 10 mg/kg, p.o., 10 mg/kg, read-out: t1/2 (converted)",4.6 ± 0.1 h
same,AUC(0-t),"[1]; po, 10 mg/kg, rat serum, p.o., 10 mg/kg, read-out: AUC0→t",500 ± 100 ng·h/mL
same,Cmax,"[1]; po, 10 mg/kg, rat serum, p.o., 10 mg/kg, read-out: Cmax",100 ng/mL
same,half-life,"[1]; po, 25 mg/kg, p.o., 25 mg/kg, read-out: t1/2 (converted)",4.4 ± 0.2 h
same,AUC(0-t),"[1]; po, 25 mg/kg, rat serum, p.o., 25 mg/kg, read-out: AUC0→t",1300 ± 100 ng·h/mL
same,Cmax,"[1]; po, 25 mg/kg, rat serum, p.o., 25 mg/kg, read-out: Cmax",200 ng/mL
same,half-life,"[1]; po, 75 mg/kg, p.o., 75 mg/kg, read-out: t1/2 (converted)",4.7 ± 0.4 h
same,AUC(0-t),"[1]; po, 75 mg/kg, p.o., range over 10, 25 and 75 mg/kg doses, read-out: area under the curve from 0 to 48 h (AUC0→t)",510 to 1500 ng·h/mL
same,half-life,"[1]; po, 75 mg/kg, p.o., range over 10, 25 and 75 mg/kg doses, read-out: half-life (t1/2)",4.38 to 4.7 h
same,AUC(0-t),"[1]; po, 75 mg/kg, rat serum, p.o., 75 mg/kg, read-out: AUC0→t",1500 ng·h/mL
same,Cmax,"[1]; po, 75 mg/kg, rat serum, p.o., 75 mg/kg, read-out: Cmax",300 ± 100 ng/mL
same,Cmax,"[1]; po, range over 10, 25 and doses, read-out: maximum concentration (Cmax) of drug in serum",50 to 310 ng/mL
same,in vitro activities against Gram-positive bacteria,[2],excellent in vitro activities
same,DPTM in urine (192 h) and feces (240 h) at the last acquisition time point,[3]; LLOQ 5 ng/mL,lower than that of the LLOQ
same,prototype drug excreted in urine at 192 h,[3]; i.m.,1.39%
same,prototype drug excreted in urine at 192 h,[3]; i.v.,1.63%
same,prototype drug excreted in urine at 192 h,[3]; p.o.,1.20%
